Assay results reported in US20050112573A1, “Method of detecting toxic substance” (priority 2001, published 2005).

Tested on: yeast genes (level of expressed mRNA)
Assay: DNA chip analysis of expressed mRNA of yeast genes after 2 h culture with a toxic chemical substance
Assay type: cell-based, Saccharomyces cerevisiae S288C
Method: Yeast (Saccharomyces cerevtisiae S288C (α SUC2mal mel gap2 CUP1)) were cultured at 25° C. on YPD medium (yeast extract 1%, polypepton 2%, glucose 2%). One of toxic chemical substances was added to the cell at logarithmic growth phase, and the cell was further cultured for two hours. Cell was cultured without any chemical substance in the same condition, and was used as control. Concentrations of the chemical substances were defined to inhibit the growth of the yeast but not lead to death.
After the completion of cultivation, the culture was centrifuged to collect the cells. To the cells, sodium acetate buffer (50 mM sodium acetate, 10 mM EDTA, 1% SDS) was added, and the mixture was shaken at 65° C. for five minutes, followed by returning to room temperature, and obtaining the supernatant, which procedure was repeated two times. To the supernatant, ½ amount of a solution of phenol/chloroform was added, and the mixture was centrifuged to give a supernatant, which was added with an equal amount of chloroform, and the mixture was centrifuged to give a supernatant. To the supernatant, an equal amount of isopropanol containing 0.3 M sodium acetate was added, and the mixture was allowed to stand at room temperature for 30 minutes, after which the mixture was centrifuged to give a sediment of the whole RNAs. Seventy % ethanol was added to the sediment, and the mixture was again centrifuged to give a sediment, which was then dried and dissolved in water. mRNA was isolated from the whole RNAs as followings. In view of the fact that a poly A chain is attached to the 3′ terminus of mRNA, a polynucleotide having a poly T structure which was immobilized on the surface of latex beads was used to trap the mRNA, and then the mRNA was washed and eluted with spine column (Oligotex-dT30<Super>mRNA Purification Kit, Takara). Reverse transcription of the mRNA was conducted with a reverse transcriptase (Super Script II Reverse Transcriptase; catalogue No. 18064-014, GibcoBRL) using fluorescence-labeled nucleotides to give cDNAs that were introduced with Cy3-dUTP or Cy5-dUTP during the reverse transcription.
The labeled cDNAs were dissolved in TE buffer (10 mM Tris-HCl/1 mM EDTA, pH8.0), and the solution was dropped on the DNA chip containing the whole genes of yeast (DNA Chip Research Inc. Japan) so that the cDNAs were hybridized on the DNA chip at 65° C. for over 12 hours. The fluoresces intensity of the DNA chip was read with a scanner, and the ratio relative to the fluorescence intensity resulting from the absence of chemical substance was estimated as the following, which is shown in Tables 1 to 9: [formula]
In the Tables, “Intensity” indicated in the rightmost column is a value of the level of expressed mRNA of each gene in control cells as divided by the average level of the expressions of the whole genes.

## γ-hexachlorocyclohexane [(7)]
Yeast gene YKL096W
  The level of expressed mRNA in the presence of chemical substance/The level of expressed mRNA in the absence of chemical substance: 0.2
Yeast gene YKL139W
  The level of expressed mRNA in the presence of chemical substance/The level of expressed mRNA in the absence of chemical substance: 2.6
Yeast gene YKL151C, ratio to control without chemical substance, 2 h culture
  The level of expressed mRNA in the presence of chemical substance/: 5.6
Yeast gene YKL153W, ratio to control without chemical substance, 2 h culture
  The level of expressed mRNA in the presence of chemical substance/: 1.1
Yeast gene YKL165C
  The level of expressed mRNA in the presence of chemical substance/The level of expressed mRNA in the absence of chemical substance: 2.1
Yeast gene YKL193C
  The level of expressed mRNA in the presence of chemical substance/The level of expressed mRNA in the absence of chemical substance: 2.1
Yeast gene YKL195W, ratio to control without chemical substance, 2 h culture
  The level of expressed mRNA in the presence of chemical substance/: 2.1
Yeast gene YKR009C
  The level of expressed mRNA in the presence of chemical substance/in the absence of chemical substance: 1.0
Yeast gene YKR014C
  The level of expressed mRNA in the presence of chemical substance/The level of expressed mRNA in the absence of chemical substance: 1.7
Yeast gene YKR091W, ratio to control without chemical
  The level of expressed mRNA in the presence of chemical substance/: 1.3
Yeast gene YLR054C, ratio to control without chemical substance, 2 h culture
  The level of expressed mRNA in the presence of chemical substance/: 1.1
Yeast gene YLR120C
  The level of expressed mRNA in the presence of chemical substance/The level of expressed mRNA in the absence of chemical substance: 1.5
Yeast gene YLR136C
  The level of expressed mRNA in the presence of chemical substance/The level of expressed mRNA in the absence of chemical substance: 3.9
Yeast gene YLR149C, ratio to control without chemical substance, 2 h culture
  The level of expressed mRNA in the presence of chemical substance/: 1.6
Yeast gene YLR152C, ratio to control without chemical substance, 2 h culture
  The level of expressed mRNA in the presence of chemical substance/: 1.4
Yeast gene YLR178C
  The level of expressed mRNA in the presence of chemical substance/The level of expressed mRNA in the absence of chemical substance: 3.3
Yeast gene YLR194C, ratio to control without chemical
  The level of expressed mRNA in the presence of chemical substance/: 1.0
Yeast gene YLR250W
  The level of expressed mRNA in the presence of chemical substance/The level of expressed mRNA in the absence of chemical substance: 1.9
Yeast gene YLR324W, ratio to control without chemical substance, 2 h culture
  The level of expressed mRNA in the presence of chemical substance/: 1.0
Yeast gene YLR327C
  The level of expressed mRNA in the presence of chemical substance/The level of expressed mRNA in the absence of chemical substance: 5.7
Yeast gene YLR350W, ratio to control without chemical substance, 2 h culture
  The level of expressed mRNA in the presence of chemical substance/: 1.2
Yeast gene YLR351C
  The level of expressed mRNA in the presence of chemical substance/in the absence of chemical substance: 1.4
Yeast gene YLR356W
  The level of expressed mRNA in the presence of chemical substance/The level of expressed mRNA in the absence of chemical substance: 1.1
Yeast gene YLR362W
  The level of expressed mRNA in the presence of chemical substance/The level of expressed mRNA in the absence of chemical substance: 1.9
Yeast gene YLR375W
  The level of expressed mRNA in the presence of chemical substance/in the absence of chemical substance: 0.9
Yeast gene YLR387C, ratio to control without chemical substance, 2 h culture
  The level of expressed mRNA in the presence of chemical substance/: 1.1
Yeast gene YLR391W
  The level of expressed mRNA in the presence of chemical substance/The level of expressed mRNA in the absence of chemical substance: 0.7
Yeast gene YLR429W
  The level of expressed mRNA in the presence of chemical substance/The level of expressed mRNA in the absence of chemical substance: 1.3
Yeast gene YLR460C, ratio to control without chemical substance, 2 h culture
  The level of expressed mRNA in the presence of chemical substance/: 1.1
Yeast gene YML117W, ratio to control without chemical substance, 2 h culture
  The level of expressed mRNA in the presence of chemical substance/: 0.7
Yeast gene YMR004W
  The level of expressed mRNA in the presence of chemical substance/The level of expressed mRNA in the absence of chemical substance: 1.2
Yeast gene YMR009W, ratio to control without chemical substance, 2 h culture
  The level of expressed mRNA in the presence of chemical substance/: 1.9
Yeast gene YMR067C, ratio to control without chemical substance, 2 h culture
  The level of expressed mRNA in the presence of chemical substance/: 1.2
Yeast gene YMR090W, ratio to control without chemical substance, 2 h culture
  The level of expressed mRNA in the presence of chemical substance/: 2.7
Yeast gene YMR094W
  The level of expressed mRNA in the presence of chemical substance/The level of expressed mRNA in the absence of chemical substance: 0.8
Yeast gene YMR095C, ratio to control without chemical
  The level of expressed mRNA in the presence of chemical substance/: 1.2
Yeast gene YMR097C, ratio to control without chemical substance, 2 h culture
  The level of expressed mRNA in the presence of chemical substance/: 1.5
Yeast gene YMR102C, ratio to control without chemical substance, 2 h culture
  The level of expressed mRNA in the presence of chemical substance/: 1.8
Yeast gene YMR104C
  The level of expressed mRNA in the presence of chemical substance/The level of expressed mRNA in the absence of chemical substance: 1.5
Yeast gene YMR107W, ratio to control without chemical substance, 2 h culture
  The level of expressed mRNA in the presence of chemical substance/: 1.2
Yeast gene YMR180C, ratio to control without chemical substance, 2 h culture
  The level of expressed mRNA in the presence of chemical substance/: 1.7
Yeast gene YMR184W, ratio to control without chemical substance, 2 h culture
  The level of expressed mRNA in the presence of chemical substance/: 1.6
Yeast gene YMR191W, ratio to control without chemical substance, 2 h culture
  The level of expressed mRNA in the presence of chemical substance/: 2.0
Yeast gene YMR226C
  The level of expressed mRNA in the presence of chemical substance/The level of expressed mRNA in the absence of chemical substance: 1.8
Yeast gene YMR267W
  The level of expressed mRNA in the presence of chemical substance/in the absence of chemical substance: 1.2
Yeast gene YMR275C
  The level of expressed mRNA in the presence of chemical substance/The level of expressed mRNA in the absence of chemical substance: 0.8
Yeast gene YMR276W
  The level of expressed mRNA in the presence of chemical substance/The level of expressed mRNA in the absence of chemical substance: 1.1
Yeast gene YMR278W
  The level of expressed mRNA in the presence of chemical substance/in the absence of chemical substance: 1.8
Yeast gene YMR293C
  The level of expressed mRNA in the presence of chemical substance/in the absence of chemical substance: 1.2
Yeast gene YMR295C, ratio to control without chemical substance, 2 h culture
  The level of expressed mRNA in the presence of chemical substance/: 1.3
Yeast gene YMR314W
  The level of expressed mRNA in the presence of chemical substance/The level of expressed mRNA in the absence of chemical substance: 1.1
Yeast gene YMR316W, ratio to control without chemical substance, 2 h culture
  The level of expressed mRNA in the presence of chemical substance/: 2.0
Yeast gene YNL006W
  The level of expressed mRNA in the presence of chemical substance/The level of expressed mRNA in the absence of chemical substance: 1.6
Yeast gene YNL007C
  The level of expressed mRNA in the presence of chemical substance/The level of expressed mRNA in the absence of chemical substance: 1.2
Yeast gene YNL044W, ratio to control without chemical substance, 2 h culture
  The level of expressed mRNA in the presence of chemical substance/: 0.9
